Reference: ChEMBL document CHEMBL1201862, “PubChem BioAssay data set” (2004)
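Where inhibition never reached the appropriate level, the endpoint shown equals the highest concentration tested. Otherwise, values were interpolated linearly from a five-concentration, 48-hour dose response in 96-well plates. GI50 is the concentration that inhibits growth by half.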 Active and inactive are the calls of the source. Cut-off read from the data, not from the text of the source: active = GI50 up to about 1.1 µM and inactive = higher.

Key:
Assay in all cases: NCI anticancer screen, dose series, 48 h
DU-145 = system: DU-145
RPMI-8226 = system: RPMI-8226
EKVX = system: EKVX
CAKI-1 = system: CAKI-1
SK-MEL-28 = system: SK-MEL-28
A498 = system: A498
SNB-19 = system: SNB-19
SF-539 = system: SF-539
HCT-15 = system: HCT-15
NCI-H23 = system: NCI-H23
MCF7 = system: MCF7
HT-29 = system: HT-29
MDA-MB-231 = system: MDA-MB-231
HOP-62 = system: HOP-62
LOX IMVI = system: LOX IMVI
MDA-MB-435 = system: MDA-MB-435
HL-60 = system: HL-60
SF-268 = system: SF-268
SNB-75 = system: SNB-75
BT-549 = system: BT-549
MDA-N = system: MDA-N
Malme-3M = system: Malme-3M
KM12 = system: KM12
SK-MEL-2 = system: SK-MEL-2
UACC-257 = system: UACC-257
A549 = system: A549
U-251 = system: U-251
OVCAR-3 = system: OVCAR-3
CCRF-CEM = system: CCRF-CEM
K562 = system: K562
UO-31 = system: UO-31
OVCAR-5 = system: OVCAR-5
NCI-H226 = system: NCI-H226
OVCAR-4 = system: OVCAR-4
SF-295 = system: SF-295
M14 = system: M14
ACHN = system: ACHN
PC-3 = system: PC-3
T47D = system: T47D
NCI-H460 = system: NCI-H460
TK-10 = system: TK-10
HCT-116 = system: HCT-116
Hs-578T = system: Hs-578T
SK-MEL-5 = system: SK-MEL-5
OVCAR-8 = system: OVCAR-8
SR = system: SR
IGROV-1 = system: IGROV-1
786-0 = system: 786-0
SW-620 = system: SW-620
HOP-92 = system: HOP-92
SN12C = system: SN12C
MOLT-4 = system: MOLT-4
RXF 393 = system: RXF 393
NCI-H522 = system: NCI-H522
SK-OV-3 = system: SK-OV-3
NCI/ADR-RES = system: NCI/ADR-RES
UACC-62 = system: UACC-62
COLO 205 = system: COLO 205

O=c1[nH]c(=S)[nH]c(-c2ccccc2)c1Cc1c(O)ccc2ccccc12 [CAMBINOL] was tested, and the GI50 (DU-145) was 41.9 µM (inactive), the GI50 (RPMI-8226) was 21.6 µM (inactive) and the GI50 (EKVX) was 26.1 µM (inactive). For the same molecule, the GI50 (CAKI-1) was 25.5 µM (inactive), the GI50 (SK-MEL-28) was 39.2 µM (inactive) and the GI50 (A498) was 21.3 µM (inactive). For the same molecule, the GI50 (SNB-19) was 37.2 µM (inactive), the GI50 (SF-539) was 25.6 µM (inactive) and the GI50 (HCT-15) was 34.4 µM. The GI50 (NCI-H23) was 29.6 µM (inactive), the GI50 (MCF7) was 33 µM (inactive) and the GI50 (HT-29) was 39.4 µM (inactive). The GI50 (MDA-MB-231) was 38.6 µM (inactive), the GI50 (HOP-62) was 64 µM (inactive) and the GI50 (LOX IMVI) was 36.1 µM (inactive). The GI50 (MDA-MB-435) was 31 µM (inactive), the GI50 (HL-60) was 20.6 µM (inactive) and the GI50 (SF-268) was 24.7 µM (inactive). For the same molecule, the GI50 (SNB-75) was 25.6 µM (inactive), the GI50 (BT-549) was 27.1 µM (inactive) and the GI50 (MDA-N) was 27.9 µM (inactive). The GI50 (Malme-3M) was 7.98 µM (inactive), the GI50 (KM12) was 30.6 µM (inactive) and the GI50 (SK-MEL-2) was 20.4 µM (inactive). For the same molecule, the GI50 (UACC-257) was 27.2 µM (inactive), the GI50 (A549) was 32.2 µM (inactive) and the GI50 (U-251) was 36.1 µM (inactive). For the same molecule, the GI50 (OVCAR-3) was 54.3 µM (inactive), the GI50 (CCRF-CEM) was 19.9 µM (inactive) and the GI50 (K562) was 31.3 µM (inactive). The GI50 (UO-31) was 29.6 µM (inactive), the GI50 (OVCAR-5) was 33.4 µM (inactive) and the GI50 (NCI-H226) was 29.6 µM (inactive). The GI50 (OVCAR-4) was 39.7 µM (inactive), the GI50 (SF-295) was 52 µM (inactive) and the GI50 (M14) was 27.9 µM (inactive). The GI50 (ACHN) was 34 µM (inactive), the GI50 (PC-3) was 37.2 µM (inactive) and the GI50 (T47D) was 24.4 µM (inactive). For the same molecule, the GI50 (NCI-H460) was 48.2 µM (inactive), the GI50 (TK-10) was 29.1 µM (inactive) and the GI50 (HCT-116) was 24.7 µM (inactive). The GI50 (Hs-578T) was 43.9 µM (inactive), the GI50 (SK-MEL-5) was 21 µM (inactive) and the GI50 (OVCAR-8) was 38 µM (inactive). For the same molecule, the GI50 (SR) was 34.8 µM (inactive), the GI50 (IGROV-1) was 33.7 µM (inactive) and the GI50 (786-0) was 34.9 µM (inactive). For the same molecule, the GI50 (SW-620) was 42.8 µM (inactive), the GI50 (HOP-92) was 26.1 µM (inactive) and the GI50 (SN12C) was 32.7 µM (inactive). The GI50 (MOLT-4) was 26.1 µM (inactive), the GI50 (RXF 393) was 29.8 µM (inactive) and the GI50 (NCI-H522) was 8.89 µM (inactive). The GI50 (SK-OV-3) was 46.1 µM (inactive), the GI50 (NCI/ADR-RES) was 33.5 µM (inactive) and the GI50 (UACC-62) was 21 µM (inactive). For the same molecule, the GI50 (COLO 205) was 21.5 µM (inactive).
